Tests used:
[1] = Exploratory single dose free drug toxicology study in rats; type: in vivo, rat; conditions: for reticulocytes: all doses, 72 hours post-dose; for reticulocyte recovery: by 168 hours post-dose; for MTD at 7 day: rat, in vivo
Protocol: An exploratory single dose toxicology study was conducted in rats comparing the C-1 (PBD bis alkylator) and DM-2 (PBD monoalkylator) free drugs. Animals received a single IV dose of C-1, DM-2, or vehicle and were monitored for a 7-day recovery period.
Toxicity was assessed by clinical observations and clinical pathology (hematology and clinical chemistry at 72 and 168 hours post-dose). In general, results were similar for DM-2 at ten times the dose level of C-1.

[2] = system: duplex oligonucleotides Pu-GAAATC-Py and Pu-GAAATG-Py; test: Oligonucleotide binding/alkylation assay
[3] = 100 μM compound, 50 μM DNA, 1 hour, 37° C.

With `C=C1C[C@H]2C=Nc3cc(OCCCCCOc4cc5c(cc4OC)C(=O)N4CC(=C)C[C@H]4C=N5)c(OC)cc3C(=O)N2C1` [C-1, (11aS,11a′S)-8,8′-(pentane-1,5-diylbis(oxy))bis(7-methoxy-2-methylene-1,2,3,11a-tetrahydro-5H-benzo[e]pyrrolo[1,2-a][1,4]diazepin-5-one), reference compound] the clinical pathology ([1]; 0.2 mg/kg) was “clinical pathology changes indicative of liver and kidney toxicity”, the tolerability ([1]; 0.05 and 0.1 mg/kg, single IV dose) was “well tolerated with no clinical signs” and the reticulocytes [1] was “dose-dependent decrease in reticulocytes”. For the same compound, the reticulocyte recovery [1] was “recovering in the 0.05 and 0.1 mg/kg groups”, the MTD at 7 day ([1]; single IV dose) was 0.1 mg/kg and the main target organs ([1]; single IV dose) was “bone marrow, kidney, and liver”. For the same compound, the “toxic potency relative to DM-2” value ([1]; single IV dose) was “approximately ten times as potent as DM-2” and the “more efficiency to covalently alkylate the duplex oligonucleotides than monoamine DM-1” value [2, 3] was 2-3 times.
With `C=C1C[C@H]2C=Nc3cc(OC)c(OC)cc3C(=O)N2C1` [C-2, (S)-7,8-dimethoxy-2-methylene-1,2,3,11a-tetrahydro-5H-benzo[e]pyrrolo[1,2-a][1,4]diazepin-5-one] the “less efficiency in covalently alkylating the duplex oligonucleotides than dimer C-1” value [2, 3] was over 50 times.
In the case of `C=C1C[C@H]2CNc3cc(OCCCCCOc4cc5c(cc4OC)C(=O)N4CC(=C)C[C@H]4CN5)c(OC)cc3C(=O)N2C1` [C-3, (11aS,11a′S)-8,8′-(pentane-1,5-diylbis(oxy))bis(7-methoxy-2-methylene-1,2,3,10,11,11a-hexahydro-5H-benzo[e]pyrrolo[1,2-a][1,4]diazepin-5-one)], the DNA binding ([2]; imine bonds of C-1 reduced) was “completely eliminates DNA binding”.
With `C=C1C[C@H]2C=Nc3cc(OCCCCCOc4cc5c(cc4OC)C(=O)N4CC(=C)C[C@H]4C(=O)N5)c(OC)cc3C(=O)N2C1` [DM-2, (S)-7-methoxy-8-((5-(((S)-7-methoxy-2-methylene-5-oxo-2,3,5,11a-tetrahydro-1H-benzo[e]pyrrolo[1,2-a] [1,4]diazepin-8-yl)oxy)pentyl)oxy)-2-methylene-2,3-dihydro-1H-benzo[e]pyrrolo[1,2-a] [1,4]diazepine-5,11(10H,11aH)-dione] the clinical pathology ([1]; 2 mg/kg) was “clinical pathology changes indicative of liver and kidney toxicity”, the outcome ([1]; 2 mg/kg) was “euthanized in moribund condition on Day 4” and the body weight loss ([1]; 2 mg/kg, Day 2 to 4) was “approximately 14%”. For the same compound, the tolerability ([1]; 0.5 and 1 mg/kg, single IV dose) was “well tolerated”, the reticulocytes [1] was “dose-dependent decrease in reticulocytes” and the reticulocyte recovery [1] was “recovered in the 0.5 and 1 mg/kg groups”. For the same compound, the MTD at 7 day ([1]; single IV dose) was 1 mg/kg and the main target organs ([1]; single IV dose) was “bone marrow, kidney, and liver”.

Reference: patent publication US10639373B2, “Pyrrolobenzodiazepine antibody drug conjugates and methods of use” (priority 2015, dated 2020)
